These results are taken from ChEMBL document CHEMBL3507680, “University of Dundee, Gates Library screen for HepG2 cell viability”.

Molecules are shown by their SMILES.

The nature of the data set: Human HepG2 cell viability assay in 384 well format. In kind it is toxicity, cell-based. Details: dose 125 nL, time 70.5 hour; cytotoxicity at 70.5 h: concentration not given beside the values. The conditions noted are these: HepG2 cells, read-out: Inhibition.
Take `O=C1CN(S(=O)(=O)c2ccc(F)cc2)CC(O)CN1CC1CC1` (stereo not drawn): the cytotoxicity at 70.5 h is -9.49%.

As for `CCCC1CN(CC(C)C)C(=O)c2cccnc2O1` (stereo not drawn), the cytotoxicity at 70.5 h stood at 44%.

Consider `CCNC(=O)N1CCC(OC)c2ccccc2N(CC(=O)NC)C(=O)C1` (stereo not drawn), for which the cytotoxicity at 70.5 h is -2.79%.

In the case of `CCOC(=O)C1CC2(CCCC2)N2CCC(=O)N12` (stereo not drawn), the cytotoxicity at 70.5 h was determined as 0.137%.

Regarding `O=C(c1ccco1)N1C(CN2CCOCC2)[C@]2(O)CC[C@H]1CC2` (stereo partly drawn), the cytotoxicity at 70.5 h was -6%.

Take `COc1ccc(-c2cnc3c(c2)CN(C2CC2)C(=O)CCN3)cc1`: the cytotoxicity at 70.5 h was -4.59%.

With `CCOC(=O)[C@@H]1[C@@H](c2ccccc2)CN2CCN(S(C)(=O)=O)C[C@H]12`, the cytotoxicity at 70.5 h was -6.56%.

For `CNC(=O)[C@@H]1[C@H]2CNCCN2C[C@H]1c1ccccc1`, the cytotoxicity at 70.5 h is -6.11%.

As to `CO[C@H]1CN(C)S(=O)(=O)[C@@]12CCN(Cc1ccccc1)C2`, the cytotoxicity at 70.5 h was -3.43%.

Regarding `CO[C@@H]1CN(c2ccccc2)S(=O)(=O)[C@@]12CCN(CC1CC1)C2`, the cytotoxicity at 70.5 h is -6.15%.

As to `CO[C@@H]1CN(c2ccccc2)S(=O)(=O)[C@@]12CCN(C(C)=O)C2`, the cytotoxicity at 70.5 h is -10.5%.

Turning to `CO[C@@H]1CN(c2ccccc2)S(=O)(=O)[C@@]12CCN(C(=O)N(C)C)C2`, the cytotoxicity at 70.5 h is -5.12%.

Regarding `CC(C)(C)OC(=O)N1CC(=O)N(Cc2ccco2)CC(O)C1` (stereo not drawn), the cytotoxicity at 70.5 h is -7.3%.

In the case of `COCC(O)CN1CCC(=O)N(CC2CC2)Cc2ccccc21` (stereo not drawn), the cytotoxicity at 70.5 h was -3.32%.

Regarding `COc1ccc(CN2CC(O)CN(C(=O)OCC(C)(C)C)CC2=O)cc1` (stereo not drawn), the cytotoxicity at 70.5 h was -2.24%.

On to `COc1ccc(C(=O)N2CC(=O)N(Cc3cccs3)CC(O)C2)cc1` (stereo not drawn), for which the cytotoxicity at 70.5 h is -2.23%.

On to `O=C1CN(C(=O)c2ccc(F)cc2)CC(O)CN1Cc1cccs1` (stereo not drawn), for which the cytotoxicity at 70.5 h was 1.6%.

As for `COc1cccc(CN2CC(O)CN(C(=O)C3CCC3)CC2=O)c1OC` (stereo not drawn), the cytotoxicity at 70.5 h was -4.14%.

For `CC(C)(O)CN1CC(C)(C)CN(C(=O)CCc2ccccc2)CC1=O`, the cytotoxicity at 70.5 h is -1.35%.

Take `COCC(O)CN1CC(C)(C)CN(C(=O)CCc2ccccc2)CC1=O` (stereo not drawn): the cytotoxicity at 70.5 h is 0.943%.

With `CCN1CC(C)(C)CN(C(=O)CCc2ccccc2)CC1=O`, the cytotoxicity at 70.5 h is -5.69%.

With `COc1ccccc1C(=O)N1CC(=O)N(CC(C)C)CC(O)C1` (stereo not drawn), the cytotoxicity at 70.5 h is -1.35%.

Regarding `O=C1CN(C(=O)C2CCCCC2)CC(O)CN1Cc1ccc(Cl)cc1` (stereo not drawn), the cytotoxicity at 70.5 h was -5.09%.

Take `CSc1ccc(C(=O)N2CC(=O)N(CC(C)(C)C)CC(O)C2)cc1` (stereo not drawn): the cytotoxicity at 70.5 h was -0.234%.

As for `CSc1ccc(C(=O)N2CC(=O)N(CC3CC3)CC(O)C2)cc1` (stereo not drawn), the cytotoxicity at 70.5 h is 2.74%.

`CSc1ccc(C(=O)N2CC(=O)N(Cc3cccs3)CC(O)C2)cc1` (stereo not drawn): the cytotoxicity at 70.5 h was -6.27%.

Take `CCOC(=O)N1CCC(OC)c2ccccc2N(C)C(=O)C1` (stereo not drawn): the cytotoxicity at 70.5 h was determined as 1.4%.

For the molecule `COC1CCN(C(=O)C2CCCC2)CC(=O)N(C)c2ccccc21` (stereo not drawn), the cytotoxicity at 70.5 h is 22.2%.

As to `COC1CCN(C(=O)COC(C)=O)CC(=O)N(C)c2ccccc21` (stereo not drawn), the cytotoxicity at 70.5 h is -3.04%.

In the case of `CN1CCN2C[C@@H](CO)[C@H](c3ccccc3)[C@H]2C1`, the cytotoxicity at 70.5 h was -5.05%.

Consider `CNC(=O)[C@@H]1[C@@H](c2ccccc2)CN2CCN(Cc3cccs3)C[C@H]12`, for which the cytotoxicity at 70.5 h amounted to 0.531%.

Turning to `CNC(=O)[C@@H]1[C@@H](c2ccccc2)CN2CCN(Cc3ccco3)C[C@H]12`, the cytotoxicity at 70.5 h was determined as 23.2%.

Consider `CNC(=O)[C@@H]1[C@H]2CN(Cc3ccccn3)CCN2C[C@H]1c1ccccc1`, for which the cytotoxicity at 70.5 h was found to be 4.19%.

With `CNC(=O)[C@@H]1[C@H]2CN(Cc3ccoc3)CCN2C[C@H]1c1ccccc1`, the cytotoxicity at 70.5 h is -0.196%.

For `CC(=O)N1CCN2C[C@H](CO)[C@@H](c3ccccc3)[C@H]2C1`, the cytotoxicity at 70.5 h was -6.55%.

For `COC(=O)N1CC2=CC(C)(C)COc3ccc(OC)c(c32)C1`, the cytotoxicity at 70.5 h was determined as 1.21%.

Consider `COCCOC(=O)N1CC2=CC(C)(C)COc3ccc(OC)c(c32)C1`, for which the cytotoxicity at 70.5 h is -1.64%.

Turning to `CC(C)(C)OC(=O)N1CC(=O)N(CCc2ccccc2)CC(O)C1` (stereo not drawn), the cytotoxicity at 70.5 h was determined as 30.2%.

Take `COc1cccc(CN2CC(O)CN(C(=O)C3CC3)CC2=O)c1OC` (stereo not drawn): the cytotoxicity at 70.5 h was 4.25%.

Turning to `Cc1ccc(CN2CC(O)CN(C(=O)OCC(C)C)CC2=O)cc1` (stereo not drawn), the cytotoxicity at 70.5 h is -4.78%.

For the molecule `COC1CCN(C(=O)CC2CCCC2)CC(=O)N(C)c2ccccc21` (stereo not drawn), the cytotoxicity at 70.5 h is -0.0141%.

Turning to `COC1CN(C(=O)CC(C)(C)C)CCC(=O)N(C)c2ccccc21` (stereo not drawn), the cytotoxicity at 70.5 h was -4.95%.

Turning to `O=C(C1CCC1)N1CCC(=O)N(C2CC2)Cc2cc(F)ccc21`, the cytotoxicity at 70.5 h was 1.48%.

As for `CCN1Cc2ccccc2N(C(=O)C2CCC2)CCC1=O`, the cytotoxicity at 70.5 h was -5.17%.

For the molecule `COCCn1ccc2c(C(=O)O)cccc21`, the cytotoxicity at 70.5 h was -3.92%.

For the molecule `CC(C)c1cc(C(=O)O)nc2[nH]c(=O)[nH]c(=O)c12`, the cytotoxicity at 70.5 h was -15.1%.

With `O=C(O)CCn1ccc2cc(Br)ccc21`, the cytotoxicity at 70.5 h was determined as 9.71%.

Consider `O=C(O)Cc1cnc(-c2c(Cl)cccc2Cl)s1`, for which the cytotoxicity at 70.5 h was -12.9%.

As for `Cc1ccc2cccc(Oc3nc(C)c(C(=O)O)s3)c2n1`, the cytotoxicity at 70.5 h worked out at 14.9%.

As for `Cc1nc(NC(C)C)nc2c1CN(Cc1cccs1)CC2`, the cytotoxicity at 70.5 h turned out to be 22.9%.

For `CC(=O)NCc1noc2c1CN(Cc1cccs1)CC2`, the cytotoxicity at 70.5 h was -1.08%.

For `CCN(CC)c1ccc2ccc(C(=O)NC3CC3)cn12`, the cytotoxicity at 70.5 h was -0.636%.

As for `CS(=O)(=O)N1CCO[C@@H]2CCN(C(=O)c3cccs3)CC[C@H]21`, the cytotoxicity at 70.5 h came to 1.12%.

Turning to `O=C1CCCN1Cc1nnn2c1CN(c1ncccn1)CCC2`, the cytotoxicity at 70.5 h is -9.38%.

As for `CC(=O)N1CC2(CCN(C(=O)c3cccc4[nH]ccc34)CC2)C1`, the cytotoxicity at 70.5 h is -8.74%.

In the case of `NC(Cc1nc(-c2ccccc2)no1)c1ccccc1` (stereo not drawn), the cytotoxicity at 70.5 h was -6.63%.

Consider `CC(C)N(C)C(=O)C1CCC2(CCNCC2)O1` (stereo not drawn), for which the cytotoxicity at 70.5 h was determined as 5.71%.

Take `Cc1ccc(NC2COC3(CCN(Cc4ccn(C)n4)CC3)C2)nn1` (stereo not drawn): the cytotoxicity at 70.5 h is -7.47%.

Turning to `Cc1noc([C@]23COC[C@H]2CN(Cc2cc(C)on2)C3)n1`, the cytotoxicity at 70.5 h was determined as 47.3%.

Turning to `O=S(=O)(N[C@@H]1CCO[C@]2(CCN(CC3CCOCC3)C2)C1)C1CC1`, the cytotoxicity at 70.5 h is -8.9%.

In the case of `CC(=O)N1CCS(=O)(=O)[C@@H]2CCN(CC(C)C)CC[C@@H]21`, the cytotoxicity at 70.5 h was -6.52%.

For the molecule `CCO[C@@H]1CN(S(=O)(=O)c2cn(C)cn2)[C@@H]2CCCO[C@@H]21`, the cytotoxicity at 70.5 h is -10.2%.

Regarding `CCC(=O)N1CCC2(CC1)CC(N1CCOCC1)c1cc(C)ccc12` (stereo not drawn), the cytotoxicity at 70.5 h was -13.5%.

For `CC(=O)NCc1nn(C)c2c1CN(Cc1ccsc1)C2`, the cytotoxicity at 70.5 h is -6.78%.

For `CC(C)n1nc(CN2CCOCC2)c2c1CN(Cc1ccsc1)C2`, the cytotoxicity at 70.5 h was -4.8%.

In the case of `CC(C)NC(=O)c1ccc2nnc(C3CN(C)CCN3C)n2c1` (stereo not drawn), the cytotoxicity at 70.5 h was -8.09%.

`CC(C)CCN1CCc2c(C(=O)N(C)Cc3ccccn3)nn(C)c2C1`: the cytotoxicity at 70.5 h was -2.57%.

In the case of `CC(C)n1nc(CNc2ncccn2)c2c1CN(C)CC2`, the cytotoxicity at 70.5 h was -6%.
